Here are results for 9 compounds from patent US7368424B2, “Acylated nonadepsipeptides” (AiCuris GmbH & Co. KG, priority 2003, dated 2008).

The subject of experiment [1] is Staphylococcus aureus 133. Format: cell-based. To be noted: 133. The protocol:
(§1) Determination of the Minimum Inhibitory Concentration (MIC):
(§2) The MIC is determined in the liquid dilution test in accordance with the NCCLS guidelines. Overnight cultures of Staphylococcus aureus 133, Enterococcus faecalis 27159, E. faecium 4147 and Streptococcus pneumoniae G9a are incubated with the desired test substances in a 1:2 dilution series. The MIC determination is carried out with a cell count of 10^5 microbes per ml in Isosensitest medium (Difco, Irvine/USA), with the exception of S. pneumoniae which is tested in BHI broth (Difco, Irvine/USA) with 10% bovine serum with a cell count of 10^6 microbes per ml. The cultures are incubated at 37° C. for 18-24 hours, S. pneumoniae in the presence of 10% CO2.
(§3) The MIC is defined as the lowest concentration of each substance at which visible bacterial growth no longer occurs. The MIC values are reported in μg/ml.

In experiment [2] the test system is Streptococcus pneumoniae G9a. In kind it is cell-based. To be noted: G9a. The protocol: as §1, §2, §3
The next experiment has as its system E. faecium L4001. Format: cell-based, Enterococcus faecium. To be noted: L4001.
Another experiment concerns E. faecalis ICB 27159. In kind it is cell-based, Enterococcus faecalis. The settings on record: ICB 27159. The protocol:
as §1, §2, §3

≈ marks a conversion by molar mass, not a printed value. *1 amine or outer side, *2 acyl side, *3 side chain or, on linkers, in order; H or OH if unused. Where a SMILES comes first, the peptide text is derived from it. Bridges are numbered along the chain shown (N, C = ends). [ ]: non-standard residue; d: D form. The star is where a group is joined. Phe(3R-OH) = O=C([C@@H](N[*:1])[C@H](O[*:3])c1ccccc1)[*:2]; Asn(3S-OH) = NC(=O)[C@@H](O)[C@H](N)C(=O)O; Leu(3R-OH) = CC(C)[C@@H](O)[C@H](N)C(=O)O; Ala(SiMe3) = C[Si](C)(C)C[C@H](N)C(=O)O; dPhe(2-F) = N[C@H](Cc1ccccc1F)C(=O)O; Ala(cPr) = N[C@@H](CC1CC1)C(=O)O; tBuAla = CC(C)(C)C[C@H](N)C(=O)O; aThr = C[C@H](O)[C@H](N)C(=O)O; Aic = NC1(C(=O)O)Cc2ccccc2C1; tBu = CC(C)(C)*

Turning to `CC[C@H](C)[C@@H]1NC(=O)[C@@H](CCCNC(=N)N)NC(=O)[C@H](CC(C)C)NC(=O)[C@H]([C@H](O)C(C)C)NC(=O)[C@@H](NC(=O)[C@H](CC2CC2)NC(=O)[C@H](N)CC(C)C)[C@@H](c2ccccc2)OC(=O)[C@H](CO)NC(=O)[C@H]([C@H](O)C(N)=O)NC(=O)CNC(=O)[C@H]([C@H](C)O)NC1=O.O=C(O)C(F)(F)F.O=C(O)C(F)(F)F` [Example 1, D-leucyl-N^1-{(3S,6S,12S,15S,18R,21S,24S,27S,28R)-6-[(1S)-2-amino-1-hydroxy-2-oxoethyl]-18-(3-{[amino(imino)methyl]amino}propyl)-12-[(1S)-1-hydroxyethyl]-3-(hydroxymethyl)-24-[(1R)-1-hydroxy-2-methylpropyl]-21-isobutyl-15-[(1S)-1-methylpropyl]-2,5,8,11,14,17,20,23,26-nonaoxo-28-phenyl-1-oxa-4,7,10,13,16,19,22,25-octaazacyclooctacosan-27-yl}-3-cyclopropyl-L-alaninamide bistrifluoroacetate] (H-[dL][Ala(cPr)][Phe(3R-OH)][Leu(3R-OH)]L[dR]I[aThr]G[Asn(3S-OH)]S; ester 3-C), in experiment [1], the “MIC S. aureus 133” value was found to be 0.125 µg/mL. Also, in experiment [2], the “MIC S. pneumoniae” value turned out to be 0.125 µg/mL. The “MIC E. faecium L4001” value in the experiment with E. faecium L4001 is 0.5 µg/mL. Also, the “MIC E. faecalis ICB 27159” value against E. faecalis ICB 27159 stood at 0.5 µg/mL.
Take `CC[C@H](C)[C@@H]1NC(=O)[C@@H](CCCNC(=N)N)NC(=O)[C@H](CC(C)C)NC(=O)[C@H]([C@H](O)C(C)C)NC(=O)[C@@H](NC(=O)[C@H](CC(C)C)NC(=O)[C@H](N)CC(C)C)[C@@H](c2ccccc2)OC(=O)[C@H](CO)NC(=O)[C@H]([C@H](O)C(N)=O)NC(=O)CNC(=O)[C@H]([C@H](C)O)NC1=O.O=C(O)C(F)(F)F.O=C(O)C(F)(F)F` [Example 1A, D-Leucyl-N^1-{(3S,6S,12S,15S,18R,21S,24S,27S,28R)-6-[(1S)-2-amino-1-hydroxy-2-oxoethyl]-18-(3-{[amino(imino)methyl]amino}propyl)-12-[(1S)-1-hydroxyethyl]-3-(hydroxymethyl)-24-[(1R)-1-hydroxy-2-methylpropyl]-21-isobutyl-15-[(1S)-1-methylpropyl]-2,5,8,11,14,17,20,23,26-nonaoxo-28-phenyl-1-oxa-4,7,10,13,16,19,22,25-octaazacyclooctacosan-27-yl}-L-leucinamide bistrifluoro-acetate, reference compound] (H-[dL]L[Phe(3R-OH)][Leu(3R-OH)]L[dR]I[aThr]G[Asn(3S-OH)]S; ester 3-C): the “MIC S. aureus 133” value in experiment [1] was found to be 0.25 µg/mL. Besides, the “MIC S. pneumoniae” value in experiment [2] came out at 0.063 µg/mL. In the experiment on E. faecium L4001, the “MIC E. faecium L4001” value was 0.5 µg/mL. Moreover, in the experiment with E. faecalis ICB 27159, the “MIC E. faecalis ICB 27159” value came to 1 µg/mL.
For the compound `CC[C@H](C)[C@@H]1NC(=O)[C@@H](CCCNC(=N)N)NC(=O)[C@H](CC(C)C)NC(=O)[C@H]([C@H](O)C(C)C)NC(=O)[C@@H](NC(=O)[C@H](CC(C)(C)C)NC(=O)[C@H](N)CC(C)C)[C@@H](c2ccccc2)OC(=O)[C@H](CO)NC(=O)[C@H]([C@H](O)C(N)=O)NC(=O)CNC(=O)[C@H]([C@H](C)O)NC1=O` [Example 3, D-leucyl-N^1-{(3S,6S,12S,15S,18R,21S,24S,27S,-28R)-6-[(1S)-2-amino-1-hydroxy-2-oxoethyl]-18-(3-{[amino(imino)methyl]amino}propyl)-12-[(1S)-1-hydroxyethyl]-3-(hydroxymethyl)-24-[(1R)-1-hydroxy-2-methylpropyl]-21-isobutyl-15-[(1S)-1-methylpropyl]-2,5,8,11,14,17,20,23,26-nonaoxo-28-phenyl-1-oxa-4,7,10,13,16,19,22,25-octaazacyclooctacosan-27-yl}-3-tert-butyl-L-alaninamide bistrifluoroacetate] (H-[dL][tBuAla][Phe(3R-OH)][Leu(3R-OH)]L[dR]I[aThr]G[Asn(3S-OH)]S; ester 3-C), the “MIC S. aureus 133” value in experiment [1] turned out to be 0.125 µg/mL (≈ 0.0969 µM). For the same compound, the “MIC S. pneumoniae” value in experiment [2] was found to be 0.031 µg/mL (≈ 0.024 µM). In addition, the “MIC E. faecium L4001” value with E. faecium L4001 is 0.25 µg/mL (≈ 0.194 µM). Besides, the “MIC E. faecalis ICB 27159” value against E. faecalis ICB 27159 is 0.25 µg/mL (≈ 0.194 µM).
`CC[C@H](C)[C@@H]1NC(=O)[C@@H](CCCNC(=N)N)NC(=O)[C@H](CC(C)C)NC(=O)[C@H]([C@H](O)C(C)C)NC(=O)[C@@H](NC(=O)[C@H](CC(C)C)NC(=O)C2(N)Cc3ccccc3C2)[C@@H](c2ccccc2)OC(=O)[C@H](CO)NC(=O)[C@H]([C@H](O)C(N)=O)NC(=O)CNC(=O)[C@H]([C@H](C)O)NC1=O` [Example 18, (2-Amino-2,3-dihydro-1H-indenylcarbonyl)-de(1-D-leucyl)lysobactin bistrifluoroacetate] (H-[Aic]L[Phe(3R-OH)][Leu(3R-OH)]L[dR]I[aThr]G[Asn(3S-OH)]S; ester 3-C): in experiment [1], the “MIC S. aureus 133” value is 1 µg/mL (≈ 0.756 µM). In experiment [2], the “MIC S. pneumoniae” value worked out at 2 µg/mL (≈ 1.51 µM). The “MIC E. faecium L4001” value against E. faecium L4001 came to 1 µg/mL (≈ 0.756 µM). Moreover, in the experiment with E. faecalis ICB 27159, the “MIC E. faecalis ICB 27159” value amounted to 1 µg/mL (≈ 0.756 µM).
Take `CC[C@H](C)[C@@H]1NC(=O)[C@@H](CCCNC(=N)N)NC(=O)[C@H](CC(C)C)NC(=O)[C@H]([C@H](O)C(C)C)NC(=O)[C@@H](NC(=O)[C@H](CC(C)C)NC(=O)[C@H](N)Cc2ccccc2F)[C@@H](c2ccccc2)OC(=O)[C@H](CO)NC(=O)[C@H]([C@H](O)C(N)=O)NC(=O)CNC(=O)[C@H]([C@H](C)O)NC1=O` [Example 23, (2-Fluoro-D-phenylalanyl)-de(1-D-leucyl)lysobactin bistrifluoroacetate] (H-[dPhe(2-F)]L[Phe(3R-OH)][Leu(3R-OH)]L[dR]I[aThr]G[Asn(3S-OH)]S; ester 3-C): in experiment [1], the “MIC S. aureus 133” value came out at 0.125 µg/mL (≈ 0.0941 µM). For the same compound, the “MIC S. pneumoniae” value in experiment [2] was 0.125 µg/mL (≈ 0.0941 µM). In addition, in the experiment on E. faecium L4001, the “MIC E. faecium L4001” value is 0.5 µg/mL (≈ 0.376 µM). In the experiment on E. faecalis ICB 27159, the “MIC E. faecalis ICB 27159” value was 1 µg/mL (≈ 0.753 µM).
Turning to `CC[C@H](C)[C@@H]1NC(=O)[C@@H](CCCNC(=N)N)NC(=O)[C@H](CC(C)C)NC(=O)[C@H]([C@H](O)C(C)C)NC(=O)[C@@H](NC(=O)[C@H](CC(C)C)NC(=O)[C@H](N)CCSC)[C@@H](c2ccccc2)OC(=O)[C@H](CO)NC(=O)[C@H]([C@H](O)C(N)=O)NC(=O)CNC(=O)[C@H]([C@H](C)O)NC1=O` [Example 24, D-Methionyl-de(1-D-leucyl)lysobactin bistrifluoroacetate] (H-[dM]L[Phe(3R-OH)][Leu(3R-OH)]L[dR]I[aThr]G[Asn(3S-OH)]S; ester 3-C), the “MIC S. aureus 133” value in experiment [1] amounted to 0.25 µg/mL (≈ 0.193 µM). Also, in experiment [2], the “MIC S. pneumoniae” value came out at 0.5 µg/mL (≈ 0.386 µM). In addition, in the experiment with E. faecium L4001, the “MIC E. faecium L4001” value worked out at 1 µg/mL (≈ 0.772 µM). Besides, the “MIC E. faecalis ICB 27159” value with E. faecalis ICB 27159 is 2 µg/mL (≈ 1.54 µM).
On to `CC[C@H](C)[C@@H]1NC(=O)[C@@H](CCCNC(=N)N)NC(=O)[C@H](CC(C)C)NC(=O)[C@H]([C@H](O)C(C)C)NC(=O)[C@@H](NC(=O)[C@H](CC(C)C)NC(=O)[C@@H](N)C[Si](C)(C)C)[C@@H](c2ccccc2)OC(=O)[C@H](CO)NC(=O)[C@H]([C@H](O)C(N)=O)NC(=O)CNC(=O)[C@H]([C@H](C)O)NC1=O` [Example 30, [3-(Trimethylsilyl)-L-alanyl]-de(1-D-leucyl)lysobactin bistrifluoroacetate] (H-[Ala(SiMe3)]L[Phe(3R-OH)][Leu(3R-OH)]L[dR]I[aThr]G[Asn(3S-OH)]S; ester 3-C), for which the “MIC S. aureus 133” value in experiment [1] stood at 0.25 µg/mL (≈ 0.191 µM). In addition, the “MIC S. pneumoniae” value in experiment [2] was found to be 0.25 µg/mL (≈ 0.191 µM). The “MIC E. faecium L4001” value with E. faecium L4001 came out at 0.5 µg/mL (≈ 0.383 µM). Also, the “MIC E. faecalis ICB 27159” value against E. faecalis ICB 27159 turned out to be 1 µg/mL (≈ 0.765 µM).
For `CC[C@H](C)[C@@H]1NC(=O)[C@@H](CCCNC(=N)N)NC(=O)[C@H](CC(C)C)NC(=O)[C@H]([C@H](O)C(C)C)NC(=O)[C@@H](NC(=O)[C@H](CC(C)C)NC(=O)[C@H](N)Cc2ccccc2)[C@@H](c2ccccc2)OC(=O)[C@H](CO)NC(=O)[C@H]([C@H](O)C(N)=O)NC(=O)CNC(=O)[C@H]([C@H](C)O)NC1=O` [Example 38, D-Phenylalanyl-de(1-D-leucyl)lysobactin bistrifluoracetate] (H-[dF]L[Phe(3R-OH)][Leu(3R-OH)]L[dR]I[aThr]G[Asn(3S-OH)]S; ester 3-C), the “MIC S. aureus 133” value in experiment [1] was 0.125 µg/mL (≈ 0.0954 µM). Moreover, in experiment [2], the “MIC S. pneumoniae” value was found to be 0.063 µg/mL (≈ 0.0481 µM). Moreover, the “MIC E. faecium L4001” value with E. faecium L4001 came out at 0.5 µg/mL (≈ 0.382 µM). For the same compound, in the experiment on E. faecalis ICB 27159, the “MIC E. faecalis ICB 27159” value was found to be 1 µg/mL (≈ 0.763 µM).
The matching figures for `CC[C@H](C)[C@@H]1NC(=O)[C@@H](CCCNC(=N)N)NC(=O)[C@H](CC(C)C)NC(=O)[C@H]([C@H](O)C(C)C)NC(=O)[C@@H](NC(=O)[C@H](CC(C)C)NC(=O)[C@H](N)COC(C)(C)C)[C@@H](c2ccccc2)OC(=O)[C@H](CO)NC(=O)[C@H]([C@H](O)C(N)=O)NC(=O)CNC(=O)[C@H]([C@H](C)O)NC1=O` [Example 47, [O-(tert-Butyl)-D-seryl]-de(1-D-leucyl)lysobactin bistrifluoroacetate] (H-[dS](tBu)L[Phe(3R-OH)][Leu(3R-OH)]L[dR]I[aThr]G[Asn(3S-OH)]S; ester 3-C): 0.25 µg/mL (≈ 0.191 µM), 0.25 µg/mL (≈ 0.191 µM), 1 µg/mL (≈ 0.765 µM) and 2 µg/mL (≈ 1.53 µM).
